# Assays:
# Format in all cases: in vivo
# [1] = system: Surinam grass (Brachiaria decumbens); assay: Test B postemergence; conditions: 13 to 15 days
# How it was run: (§1)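 Visual injury scores, 0 = no effect to 100 = complete control, assigned against controls after 13 to 15 days in the greenhouse. Compounds formulated in non-phytotoxic solvent plus surfactant and applied to soil after planting (pre) or onto foliage of 1- to 4-leaf plants (post).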
# [2] = system: barnyardgrass (Echinochloa crus-galli); assay: Test B postemergence; conditions: 13 to 15 days
# How it was run: as §1
# [3] = system: blackgrass (Alopecurus myosuroides); assay: Test B postemergence; conditions: 13 to 15 days
# How it was run: as §1
# [4] = system: cocklebur (Xanthium strumarium); assay: Test B postemergence; conditions: 13 to 15 days
# How it was run: as §1
# corn (Zea mays) [5] = assay: Test B postemergence; conditions: 13 to 15 days
# How it was run: as §1
# [6] = system: crabgrass (Digitaria sanguinalis); assay: Test B postemergence; conditions: 13 to 15 days
# How it was run: as §1
# [7] = system: giant foxtail (Setaria faberii); assay: Test B postemergence; conditions: 13 to 15 days
# How it was run: as §1
# [8] = system: lambsquarters (Chenopodium album); assay: Test B postemergence; conditions: 13 to 15 days
# How it was run: as §1
# [9] = system: morning glory (Ipomoea hederacea); assay: Test B postemergence; conditions: 13 to 15 days
# How it was run: as §1
# [10] = system: pigweed (Amaranthus retroflexus); assay: Test B postemergence; conditions: 13 to 15 days
# How it was run: as §1
# [11] = system: velvetleaf (Abutilon theophrasti); assay: Test B postemergence; conditions: 13 to 15 days
# How it was run: as §1
# [12] = system: wheat (Triticum aestivum); assay: Test B postemergence; conditions: 13 to 15 days
# How it was run: as §1
# wild oat (Avena fatua) = assay: Test B postemergence; conditions: 13 to 15 days
# How it was run: as §1
# [13] = system: Surinam grass (Brachiaria decumbens); assay: Test B preemergence
# How it was run: as §1
# [14] = system: barnyardgrass (Echinochloa crus-galli); assay: Test B preemergence
# How it was run: as §1
# [15] = system: cocklebur (Xanthium strumarium); assay: Test B preemergence; conditions: Preemergence, Rate 500 g/ha; scale 0 to 100, 0 no effect, 100 complete control
# How it was run: as §1
# corn (Zea mays) [16] = assay: Test B preemergence
# How it was run: as §1
# [17] = system: crabgrass (Digitaria sanguinalis); assay: Test B preemergence
# How it was run: as §1
# [18] = system: giant foxtail (Setaria faberii); assay: Test B preemergence
# How it was run: as §1
# [19] = system: lambsquarters (Chenopodium album); assay: Test B preemergence
# How it was run: as §1
# [20] = system: morning glory (Ipomoea hederacea); assay: Test B preemergence
# How it was run: as §1
# [21] = system: pigweed (Amaranthus retroflexus); assay: Test B preemergence
# How it was run: as §1
# rice (Oryza saliva) [22] = assay: Test B preemergence
# How it was run: as §1
# [23] = system: velvetleaf (Abutilon theophrasti); assay: Test B preemergence
# How it was run: as §1
# [24] = system: barnyardgrass (Echinochloa crus-galli); assay: Test B flooded paddy test; conditions: Rate 1000 g/ha, scale of 0 to 100 where 0 is no effect and 100 is complete control, visually evaluated after 13 to 15 days
# How it was run: (§2)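 Plants were grown to the 2-leaf stage in flooded paddy conditions before treatment with the formulated test chemicals. After 13 to 15 days in a greenhouse, each species was visually compared with untreated controls and rated from 0 (no effect) to 100 (complete control).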
# [25] = system: duck salad (Heteranthera limosa); assay: Test B flooded paddy test; conditions: Rate 1000 g/ha, scale of 0 to 100 where 0 is no effect and 100 is complete control, visually evaluated after 13 to 15 days
# How it was run: as §2
# rice (Oryza saliva) [26] = assay: Test B flooded paddy test; conditions: Rate 1000 g/ha, scale of 0 to 100 where 0 is no effect and 100 is complete control, visually evaluated after 13 to 15 days
# How it was run: as §2
# [27] = system: smallflower flatsedge (Cyperus difformis); assay: Test B flooded paddy test; conditions: Rate 1000 g/ha, scale of 0 to 100 where 0 is no effect and 100 is complete control, visually evaluated after 13 to 15 days
# How it was run: as §2
# [28] = system: barnyardgrass (Echinochloa crus-galli); assay: Test C flooded paddy test; conditions: for Barnyardgrass plant response rating: Flooded Paddy, scale 0 to 100, 0 no effect, 100 complete control; for Plant response rating, Barnyardgrass: flooded paddy test, scale 0 to 100 (0 no effect, 100 complete control)
# How it was run: (§3)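 Each species was cultivated to 2 leaves in flooded paddy pots, then treated. After a greenhouse period of 12–14 days, the plants were scored visually relative to controls from 0 (no effect) to 100 (complete control).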
# [29] = system: duck salad (Heteranthera limosa); assay: Test C flooded paddy test; conditions: for Ducksalad plant response rating: Flooded Paddy, scale 0 to 100, 0 no effect, 100 complete control; for Plant response rating, Ducksalad: flooded paddy test, scale 0 to 100 (0 no effect, 100 complete control)
# How it was run: as §3
# rice (Oryza saliva) [30] = assay: Test C flooded paddy test; conditions: for Rice plant response rating: Flooded Paddy, scale 0 to 100, 0 no effect, 100 complete control; for Plant response rating, Rice: flooded paddy test, scale 0 to 100 (0 no effect, 100 complete control)
# How it was run: as §3
# [31] = system: smallflower flatsedge (Cyperus difformis); assay: Test C flooded paddy test; conditions: for Flatsedge plant response rating: Flooded Paddy, scale 0 to 100, 0 no effect, 100 complete control; for Plant response rating, Flatsedge: flooded paddy test, scale 0 to 100 (0 no effect, 100 complete control)
# How it was run: as §3
# [32] = Rate 125 g/ha, scale 0 (no effect) to 100 (complete control)
# [33] = Rate 500 g/ha, scale 0 to 100, 0 is no effect, 100 is complete control
# [34] = Preemergence, Rate 500 g/ha, scale 0 to 100, 0 no effect, 100 complete control
# [35] = preemergence, Rate 125 g/ha, scale of 0 to 100 where 0 is no effect and 100 is complete control, 13 to 15 days
structure (smiles),measurement,setting,value
Cc1cc(N2CCC(n3ccc(C(C)(C)C)n3)C2=O)ccc1Cl (stereo not shown) [Compound 53],"Plant response rating, Surinam grass",[1]; [32],0
same,"Plant response rating, Surinam grass",[1]; [33],0
same,"Plant response rating, Barnyardgrass",[2]; [32],0
same,"Plant response rating, Barnyardgrass",[2]; [33],0
same,"Plant response rating, Blackgrass",[3]; [32],0
same,"Plant response rating, Blackgrass",[3]; [33],0
same,"Plant response rating, Cocklebur",[4]; [32],0
same,"Plant response rating, Cocklebur",[4]; [33],0
same,"Plant response rating, Corn",corn (Zea mays) [5]; [32],0
same,"Plant response rating, Corn",corn (Zea mays) [5]; [33],10
same,"Plant response rating, Crabgrass",[6]; [32],0
same,"Plant response rating, Crabgrass",[6]; [33],0
same,"Plant response rating, Foxtail, Giant",[7]; [32],0
same,"Plant response rating, Foxtail, Giant",[7]; [33],0
same,"Plant response rating, Lambsquarters",[8]; [32],40
same,"Plant response rating, Lambsquarters",[8]; [33],80
same,"Plant response rating, Morningglory",[9]; [32],0
same,"Plant response rating, Morningglory",[9]; [33],10
same,"Plant response rating, Pigweed",[10]; [32],80
same,"Plant response rating, Pigweed",[10]; [33],90
same,"Plant response rating, Velvetleaf",[11]; [32],0
same,"Plant response rating, Velvetleaf",[11]; [33],0
same,"Plant response rating, Wheat",[12]; [32],0
same,"Plant response rating, Wheat",[12]; [33],0
same,"Plant response rating, Wild Oat",wild oat (Avena fatua); [32],0
same,"Plant response rating, Wild Oat",wild oat (Avena fatua); [33],0
same,"Plant response rating, Surinam grass",[13]; [34],0
same,"Plant response rating, Surinam grass",[13]; [35],0
same,"Plant response rating, Barnyardgrass",[14]; [34],90
same,"Plant response rating, Barnyardgrass",[14]; [35],0
same,"Plant response rating, Cocklebur",[15],0
same,"Plant response rating, Corn",corn (Zea mays) [16]; [34],0
same,"Plant response rating, Corn",corn (Zea mays) [16]; [35],0
same,"Plant response rating, Crabgrass",[17]; [34],0
same,"Plant response rating, Crabgrass",[17]; [35],0
same,"Plant response rating, Foxtail, Giant",[18]; [34],0
same,"Plant response rating, Foxtail, Giant",[18]; [35],0
same,"Plant response rating, Lambsquarters",[19]; [34],100
same,"Plant response rating, Lambsquarters",[19]; [35],100
same,"Plant response rating, Morningglory",[20]; [34],0
same,"Plant response rating, Morningglory",[20]; [35],0
same,"Plant response rating, Pigweed",[21]; [34],100
same,"Plant response rating, Pigweed",[21]; [35],100
same,"Plant response rating, Rice",rice (Oryza saliva) [22]; [34],0
same,"Plant response rating, Rice",rice (Oryza saliva) [22]; [35],0
same,"Plant response rating, Velvetleaf",[23]; [34],0
same,"Plant response rating, Velvetleaf",[23]; [35],0
same,"Plant response rating, Barnyardgrass",[24],100
same,"Plant response rating, Ducksalad",[25],30
same,"Plant response rating, Rice",rice (Oryza saliva) [26],20
same,"Plant response rating, Flatsedge",[27],90
same,Barnyardgrass plant response rating,[28]; Rate 250 g/ha,70
same,Barnyardgrass plant response rating,[28]; Rate 500 g/ha,100
same,"Plant response rating, Barnyardgrass",[28]; Rate 62 g/ha,20
same,"Plant response rating, Barnyardgrass",[28]; Rate 125 g/ha,30
same,Ducksalad plant response rating,[29]; Rate 250 g/ha,50
same,Ducksalad plant response rating,[29]; Rate 500 g/ha,60
same,"Plant response rating, Ducksalad",[29]; Rate 62 g/ha,20
same,"Plant response rating, Ducksalad",[29]; Rate 125 g/ha,40
same,Rice plant response rating,rice (Oryza saliva) [30]; Rate 250 g/ha,0
same,Rice plant response rating,rice (Oryza saliva) [30]; Rate 500 g/ha,0
same,"Plant response rating, Rice",rice (Oryza saliva) [30]; Rate 62 g/ha,0
same,"Plant response rating, Rice",rice (Oryza saliva) [30]; Rate 125 g/ha,0
same,Flatsedge plant response rating,[31]; Rate 250 g/ha,90
same,Flatsedge plant response rating,[31]; Rate 500 g/ha,100
same,"Plant response rating, Flatsedge",[31]; Rate 62 g/ha,80
same,"Plant response rating, Flatsedge",[31]; Rate 125 g/ha,90

# — patent US7138361B2, “Herbicidal heterocycles” (E. I. du Pont de Nemours and Company, priority 2000, dated 2006)
